Laboratory results reported in EP2030621A1, “Novel substituted pyrimidines as cysteine protease inhibitors” (GLAXO GROUP LIMITED, priority 2007, dated 2009).
Counter-ions that a name gives are not always drawn.

Test system: Plasmodium falciparum parasite
Experiment: Whole cell assay: whole cell activity against the parasite
Assay type: cell-based
Settings: not given
Text: Compounds can be evaluated for whole cell actvity against the Plasmadium falciparum parasite according to the procedure described in Sijwali S. and Rosenthal P. J., (2004) Proceedings of the National Academy of Sciences of the United States of America (PNAS) 101(13), 4384-4389 (see in particular "Measurement of Parasite Growth rates and Inhibitor Sensitivity" on page 4385); IC50 values can be calculated as described in Singh A. and Rosenthal P. J., (2001) Antimicrobial Agents and Chemotherapy 45(3), 949-951 (see in particular page 950, first column); synchronised parasites can be prepared as described in Divo A. A. et al., (1985) Protozool. 32, 59-64. 3) In vitro models to evaluate activity against bone metastasis

IC50 [nM]	Compound
2.5 to 15	CN1CCN(C2CCN(Cc3ccc(C(=O)NN(c4nc(C#N)ncc4Cl)C4CCCCC4)cc3)CC2)CC1 [Example 40, N'-(5-chloro-2-cyano-4-pyrimidinyl)-N'-cyclohexyl-4-{[4-(4-methyl-1-piperazinyl)-1-piperidinyl]methyl}benzohydrazide]

Same assay, conditions: Plasmodium falciparum

Compound	IC50 [nM]
N#Cc1ncc(Br)c(N(NC(=O)c2cccc(CN3CCC(N4CCOCC4)CC3)c2)C2CCCC2)n1 [Example 13, N'-(5-bromo-2-cyano-4-pyrimidinyl)-N'-cyclopentyl-3-{[4-(4-morpholinyl)-1-piperidinyl]methyl}benzohydrazide trifluoroacetate]	15 to 150
N#Cc1ncc(Br)c(N(NC(=O)c2ccc(CN3CCC(N4CCOCC4)CC3)cc2)C2CCCCC2)n1 [Example 18, N'-(5-bromo-2-cyano-4-pyrimidinyl)-N'-cyclohexyl-4-{[4-(4-morpholinyl)-1-piperidinyl]methyl}benzohydrazide trifluoroacetate]	15 to 150
N#Cc1ncc(Br)c(N(NC(=O)c2ccc(CN3CCC(O)CC3)cc2)C2CCCCC2)n1 [Example 21, N'-(5-bromo-2-cyano-4-pyrimidinyl)-N'-cyclohexyl-4-[(4-hydroxy-1-piperidinyl)methyl]benzohydrazide trifluoroacetate]	15 to 150
CN1CCC(CN2CCN(Cc3ccc(C(=O)NN(c4nc(C#N)ncc4Br)C4CCOCC4)cc3)CC2)CC1 [Example 30, N'-(5-Bromo-2-cyano-4-pyrimidiny)-4-({4-[(1-methyl-4-piperidinyl)methyl]-1-piperazinyl}methyl)-N'-(tetrahydro-2H-pyran-4-yl)benzohydrazide trifluoroacetate]	15 to 150
CN1CCCC(CN2CCN(Cc3ccc(C(=O)NN(c4nc(C#N)ncc4Br)C4CCOCC4)cc3)CC2)C1 (stereo not shown) [Example 31, N'-(5-Bromo-2-cyano-4-pyrimidinyl)-4-({4-[(1-methyl-3-pipendinyl)methyl]-1-piperazinyl}methyl)-N'-(tetrahydro-2H-pyran-4-yl)benzohydrazide trifluoroacetate]	15 to 150
CN1CCN(C(=O)C2CCN(Cc3ccc(C(=O)NN(c4nc(C#N)ncc4Br)C4CCOCC4)cc3)CC2)CC1 [Example 32, N'-(5-Bromo-2-cyano-4-pyrimidinyl)-4-({4-[(4-methyl-1-piperazinyl)carbonyl]-1-piperidinyl}methyl)-N'-(tetrahydro-2H-pyran-4-yl)benzohydrazide trifluoroacetate]	15 to 150
N#Cc1ncc(Br)c(N(NC(=O)c2ccc(CN3CC(N4CCCC4)C3)cc2)C2CCOCC2)n1 [Example 33, N'-(5-bromo-2-cyano-4-pyrimidinyl)-4-{[3-(1-pyrrolidinyl)-1-azetidinyl]methyl}-N'-(tetrahydro-2H-pyran-4-yl)benzohydrazide trifluoroacetate]	15 to 150
CN1CCC(CN2CCN(Cc3ccc(C(=O)NN(c4nc(C#N)ncc4Cl)C4CCOCC4)cc3)CC2)CC1 [Example 35, N'-(5-Chloro-2-cyano-4-pyrimidinyl)-4-({4-[(1-methyl-4-piperidiny)methyl]-1-piperazinyl}methyl)-N'-(tetrahydro-2H-pyran-4-yl)benzohydrazide trifluoroacetate]	15 to 150
CN1CCN(Cc2ccc(-c3ccc(C(=O)NN(c4nc(C#N)ncc4Br)C4CCCCC4)cn3)cc2)CC1 [Example 44, N'-(5-bromo-2-cyano-4-pyrimidinyl)-N'-cyclohexyl-6-{4-[(4-methyl-1-piperazinyl)methyl]phenyl}-3-pyridinecarbohydrazide trifluoroacetate]	15 to 150
CN1CCN(Cc2ccc(-c3cncc(C(=O)NN(c4nc(C#N)ncc4Br)C4CCCC4)c3)cc2)CC1 [Example 45, N'-(5-bromo-2-cyano-4-pyrimidinyl)-N'-cyclopentyl-5-{4-[(4-methyl-1-piperazinyl)methyl]phenyl}-3-pyridinecarbohydrazide trifluoroacetate]	15 to 150
CN1CCN(Cc2ccc(-c3ccc(C(=O)NN(c4nc(C#N)ncc4Br)C4CCCC4)cn3)cc2)CC1 [Example 46, N'-(5-bromo-2-cyano-4-pyrimidinyl)-N'-cyclopentyl-6-{4-[(4-methyl-1-piperazinyl)methyl]phenyl}-3-pyridinecarbohydrazide trifluoroacetate]	2.5 to 15
CN1CCN(Cc2cccc(-c3cncc(C(=O)NN(c4nc(C#N)ncc4Br)C4CCCCC4)c3)c2)CC1 [Example 47, N'-(5-bromo-2-cyano-4-pyrimidinyl)-N'-cyclohexyl-5-{3-[(4-methyl-1-piperazinyl)methyl]phenyl}-3-pyridinecarbohydrazide trifluoroacetate]	2.5 to 15

Further lines, results first:

IC50 [nM]	Compound
2.5 to 15	CN1CCN(C2CCN(Cc3cccc(C(=O)NN(c4nc(C#N)ncc4Br)C4CCCC4)c3)CC2)CC1 [Example 11, N'-(5-bromo-2-cyano-4-pyrimidinyl)-N'-cyclopentyl-3-{[4-(4-methyl-1-piperazinyl)-1-piperidinyl]methyl}benzohydrazide trifluoroacetate]
2.5 to 15	CN1CCN(C(=O)C2CCN(Cc3cccc(C(=O)NN(c4nc(C#N)ncc4Br)C4CCCC4)c3)CC2)CC1 [Example 12, N'-(5-bromo-2-cyano-4-pyrimidinyl)-N'-cyclopentyl-3-({4-[(4-methyl-1-piperazinyl)carbonyl]-1-piperidinyl}methyl)benzohydrazide trifluoroacetate]
2.5 to 15	CN1CCCC(CN2CCN(Cc3cccc(C(=O)NN(c4nc(C#N)ncc4Br)C4CCCC4)c3)CC2)C1 (stereo not shown) [Example 14, N'-(5-bromo-2-cyano-4-pyrimidinyl)-N'-cyclopentyl-3-({4-[(1-methyl-3-piperidinyl)methyl]-1-piperazinyl}methyl)benzohydrazide trifluoroacetate]
2.5 to 15	CN1CCN(Cc2ccc(C(=O)NN(c3nc(C#N)ncc3Br)C3CCCCC3)cc2)CC1 [Example 16, N'-(5-bromo-2-cyano-4-pyrimidinyl)-N'-cyclohexyl-4-[(4-methyl-1-piperazinyl)methyl]benzohydrazide trifluoroacetate]
2.5 to 15	CN1CCN(C2CCN(Cc3ccc(C(=O)NN(c4nc(C#N)ncc4Br)C4CCCCC4)cc3)CC2)CC1 [Example 17, N'-(5-bromo-2-cyano-4-pyrimidinyl)-N'-cyclohexyl-4-{[4-(4-methyl-1-piperazinyl)-1-piperidinyl]methyl}benzohydrazide trifluoroacetate]
2.5 to 15	CN1CCC(CN2CCN(Cc3ccc(C(=O)NN(c4nc(C#N)ncc4Br)C4CCCCC4)cc3)CC2)CC1 [Example 19, N'-(5-bromo-2-cyano-4-pyrimidinyl)-N'-cyclohexyl-4-({4-[(1-methyl-4-piperidinyl)methyl]-1-piperazinyl}methyl)benzohydrazide trifluoroacetate]
2.5 to 15	CN1CCN(C2CCN(Cc3cccc(C(=O)NN(c4nc(C#N)ncc4Br)C4CCCCC4)c3)CC2)CC1 [Example 20, N'-(5-bromo-2-cyano-4-pyrimidinyl)-N'-cyclohexyl-3-{[4-(4-methyl-1-piperazinyl)-1-piperidinyl]methyl}benzohydrazide trifluoroacetate]
2.5 to 15	CN1CCN(C(=O)C2CCN(Cc3ccc(C(=O)NN(c4nc(C#N)ncc4Br)C4CCCCC4)cc3)CC2)CC1 [Example 22, N'-(5-bromo-2-cyano-4-pyrimidinyl)-N'-cyclohexyl-4-({4-[(4-methyl-1-piperazinyl)carbonyl]-1-piperidinyl}methyl)benzohydrazide trifluoroacetate]
2.5 to 15	CN1CCN(C(=O)C2CCN(Cc3cccc(C(=O)NN(c4nc(C#N)ncc4Br)C4CCCCC4)c3)CC2)CC1 [Example 23, N'-(5-bromo-2-cyano-4-pyrimidinyl)-N'-cyclohexyl-3-[{4-[(4-methyl-1-piperazinyl)carbonyl]-1-piperidinyl}methyl)benzohydrazide trifluoroacetate]
2.5 to 15	N#Cc1ncc(Br)c(N(NC(=O)c2cccc(CN3CCC(N4CCOCC4)CC3)c2)C2CCCCC2)n1 [Example 24, N'-(5-bromo-2-cyano-4-pyrimidinyl)-N'-cyclohexyl-3-{[4-(4-morpholinyl)-1-piperidinyl]methyl}benzohydrazide trifluoroacetate]
2.5 to 15	CN1CCCC(CN2CCN(Cc3ccc(C(=O)NN(c4nc(C#N)ncc4Br)C4CCCCC4)cc3)CC2)C1 (stereo not shown) [Example 25, N'-(5-bromo-2-cyano-4-pyrimidinyl)-N'-cyclohexyl-4-({4-[(1-methyl-3-piperidinyl)methyl]-1-piperazinyl}methyl)benzohydrazide trifluoroacetate]
2.5 to 15	CN1CCCC(CN2CCN(Cc3cccc(C(=O)NN(c4nc(C#N)ncc4Br)C4CCCCC4)c3)CC2)C1 (stereo not shown) [Example 27, N'-(5-bromo-2-cyano-4-pyrimidinyl)-N'-cyclohexyl-3-({4-[(1-methyl-3-piperidinyl)methyl]-1-piperazinyl}methyl)benzohydrazide trifluoroacetate]
2.5 to 15	CN1CCC(CN2CCN(Cc3cccc(C(=O)NN(c4nc(C#N)ncc4Br)C4CCCCC4)c3)CC2)CC1 [Example 28, N'-(5-bromo-2-cyano-4-pyrimidinyl)-N'-cyclohexyl-3-({4-[(1-methyl-4-piperidinyl)methyl]-1-piperazinyl}methyl)benzohydrazide trifluoroacetate]
2.5 to 15	CN1CCN(C2CCN(Cc3ccc(C(=O)NN(c4nc(C#N)ncc4Cl)C4CCOCC4)cc3)CC2)CC1 [Example 34, N'-(5-Chloro-2-cyano-4-pyrimidinyl)-4-{[4-(4-methyl-1-piperazinyl)-1-piperidinyl]methyl}-N'-(tetrahydro-2H-pyran-4-yl)benzohydrazide trifluoroacetate]

Same assay, conditions: dihydrochloride

IC50 [nM]	Compound
1 to 2.5	CN1CCN(C2CCN(Cc3ccc(C(=O)NN(c4nc(C#N)ncc4Cl)C4CCCCC4)cc3)CC2)CC1 [Example 41, N'-(5-chloro-2-cyano-4-pyrimidinyl)-N'-cyclohexyl-4-{[4-(4-methyl-1-piperazinyl)-1-piperidinyl]methyl}benzohydrazide dihydrochloride]
